Test system: BMDMs
Assay: UNC2025 with PS:PLG particle treatment of LPS-inflamed primary macrophages
Format: cell-based, mice
Details: LPS 1 ng/mL, PS:PLG 1:10 cell to particle ratio
Method: FIG. 10 depicts TNF-α secreted by BMDMs pre-treated with UNC2025 followed by a co-treatment with LPS (1 ng/mL) and PS:PLG (1:10 cell to particle ratio).
FIG. 11 depicts IL-6 secreted by BMDMs pre-treated with UNC2025 followed by a co-treatment with LPS (1 ng/mL) and PS:PLG (1:10 cell to particle ratio).
FIG. 12 depicts IL-10 secreted by BMDMs pre-treated with UNC2025 followed by a co-treatment with LPS (1 ng/mL) and PS:PLG (1:10 cell to particle ratio).
This effect is not limited to UNC2025 but applicable to a broad range of bioactive molecules including small molecules, nucleic acids, peptides, lipids, glycans, etcetera.

SMILES: CCCCNc1ncc2c(-c3ccc(CN4CCN(C)CC4)cc3)cn([C@H]3CC[C@H](O)CC3)c2n1 [UNC2025]
- anti-inflammatory response of PS:PLG particle treatment with co-delivery of small molecule (TNF-α, IL-6, IL-10): synergistically enhanced
